# Test results taken from US4855321A, “Antihypercholesterolemic compounds” (Merck & Co., Inc., priority 1988, dated 1989).
# System: HMG-CoA reductase
# Test: HMG-CoA Reductase Inhibition Assay (in vitro, [14C]HMG-CoA, relative to compactin)
# Type: biochemical, rat (male Holtzman Sprague-Dawley)
# Conditions: compactin assigned 100; IC50 of test compound compared with that of compactin determined simultaneously; pH 7.2, 40 min, 37° C.; lactone converted in situ to sodium salt of dihydroxy acid
# Procedure: The intrinsic HMG-CoA reductase inhibition activity of the claimed compounds is measured in the in vitro protocol published in J. Med. Chem., 28, p. 347-358 (1985) and described below:
# Male Holtzman Sprague-Dawley rats (225-250 g) were kept on reversed lighting and fed Purina rat chow containing 3% cholestyramine for 7 days preceding their sacrifice by CO2 asphyxiation. Livers were removed 6 hours into the dark cycle and used immediately to prepare microsomes. […]
# Test compounds or compactin (after first being converted to the sodium salt of their dihydroxy acid form in situ by addition of 1N NaOH (1 equivalent) were added to the assay system in 10-μl volumes at multiconcentration levels. After a 40-minute incubation at 37° C. to ensure the complete lactionization of mevalonic acid to mevalonolactone, 0.2 ml of the mixture was added to an 0.5×5.0 cm column containing 100-200 mesh BioRex 5, chloride form (Bio-Rad), wetted with distilled water, as described by Alberts et al., [J. Proc. Natl. Acad. Sci. U.S.A., 1980, 77, 3957]. The unreacted [^14 C]HMG-CoA was absorbed on the resin and the [^14 C] mevalonolactone was eluted with distilled water (2×1 ml) directly into 7-ml scintillation vials. Five milliliters of Aquasol-2 (New England Nuclear) was added to each vial, and radioactivity was measured in a Packard Tri Carb Prias scintillation counter. […]
compound,measurement,value
"Cc1cc(C)c(/C=C/[C@H]2C[C@H](O)CC(=O)O2)c(-c2ccc(F)c(CO)c2)c1 (relative stereo) [trans-(E)-6-[2-[4'-fluoro-3'-(hydroxymethyl)-3,5-dimethyl[1,1'-biphenyl]-2-yl]ethenyl]-3,4,5,6-tetrahydro-4-hydroxy-2H-pyran-2-one]",relative potency (intrinsic HMG-CoA reductase inhibitory activity) when compared to compactin at 100,26.5
